Measurements from ChEMBL document CHEMBL1127612, “Maleimidoethyl 3-(tri-n-butylstannyl)hippurate: a useful radioiodination reagent for protein radiopharmaceuticals to enhance target selective radioactivity localization” (J Med Chem, 1994).

Key:
Mus musculus [1] = assay: Tested for biodistribution of radioactivity after 24 hr of intravenous injection in mice urine; assay type: ADME, organism-based; conditions: in vivo
Mus musculus [2] = assay: Tested for biodistribution of radioactivity after 30 min of intravenous injection in mice neck; assay type: ADME, organism-based; conditions: in vivo, 0.5 h
Mus musculus [3] = assay: Tested for biodistribution of radioactivity after 5 min of intravenous injection in mice kidneys; assay type: ADME, organism-based; conditions: in vivo
Mus musculus [4] = assay: Tested for biodistribution of radioactivity after 24 hr of intravenous injection in mice neck; assay type: ADME, organism-based; conditions: in vivo
Mus musculus [5] = assay: Tested for biodistribution of radioactivity after 24 hr of intravenous injection in mice stomach; assay type: ADME, organism-based; conditions: in vivo
Mus musculus [6] = assay: Tested for biodistribution of radioactivity after 6 hr of intravenous injection in mice intestines; assay type: ADME, organism-based, Intestine; conditions: in vivo
Mus musculus [7] = assay: Tested for biodistribution of radioactivity after 3h of intravenous injection in mice kidneys; assay type: ADME, organism-based, Kidney; conditions: in vivo
Mus musculus [8] = assay: Tested for biodistribution of radioactivity after 30 min of intravenous injection in mice spleen; assay type: ADME, organism-based; conditions: in vivo, 0.5 h
Mus musculus [9] = assay: Tested for biodistribution of radioactivity after 6 hr of intravenous injection in mice stomach; assay type: ADME, organism-based; conditions: in vivo
Mus musculus [10] = assay: Tested for biodistribution of radioactivity after 6 hr of intravenous injection in mice feces; assay type: ADME, organism-based; conditions: in vivo
Mus musculus [11] = assay: Tested for biodistribution of radioactivity after 1 hr of intravenous injection in mice kidneys; assay type: ADME, organism-based, Kidney; conditions: in vivo
Mus musculus [12] = assay: Tested for biodistribution of radioactivity after 1 hr of intravenous injection in mice blood; assay type: ADME, organism-based; conditions: in vivo
Mus musculus [13] = assay: Tested for biodistribution of radioactivity after 24 hr of intravenous injection in mice intestines; assay type: ADME, organism-based, Intestine; conditions: in vivo
Mus musculus [14] = assay: Tested for biodistribution of radioactivity after 1 hr of intravenous injection in mice stomach; assay type: ADME, organism-based; conditions: in vivo
Mus musculus [15] = assay: Tested for biodistribution of radioactivity after 24 hr of intravenous injection in mice spleen; assay type: ADME, organism-based; conditions: in vivo
Mus musculus [16] = assay: Tested for biodistribution of radioactivity after 30 min of intravenous injection in mice liver; assay type: ADME, organism-based; conditions: in vivo, 0.5 h
Mus musculus [17] = assay: Tested for biodistribution of radioactivity after 30 min of intravenous injection in mice kidneys; assay type: ADME, organism-based; conditions: in vivo, 0.5 h
Mus musculus [18] = assay: Tested for biodistribution of radioactivity after 1 hr of intravenous injection in mice spleen; assay type: ADME, organism-based; conditions: in vivo
Mus musculus [19] = assay: Tested for biodistribution of radioactivity after 6 hr of intravenous injection in mice neck; assay type: ADME, organism-based; conditions: in vivo
Mus musculus [20] = assay: Tested for biodistribution of radioactivity after 5 min of intravenous injection in mice blood; assay type: ADME, organism-based; conditions: in vivo
Mus musculus [21] = assay: Tested for biodistribution of radioactivity after 24 hr of intravenous injection in mice liver; assay type: ADME, organism-based; conditions: in vivo
Mus musculus [22] = assay: Tested for biodistribution of radioactivity after 6 hr of intravenous injection in mice kidneys; assay type: ADME, organism-based, Kidney; conditions: in vivo
Mus musculus [23] = assay: Tested for biodistribution of radioactivity after 3h of intravenous injection in mice spleen; assay type: ADME, organism-based; conditions: in vivo
Mus musculus [24] = assay: Tested for biodistribution of radioactivity after 30 min of intravenous injection in mice blood; assay type: ADME, organism-based; conditions: in vivo, 0.5 h
Mus musculus [25] = assay: Tested for biodistribution of radioactivity after 3h of intravenous injection in mice blood; assay type: ADME, organism-based; conditions: in vivo
Mus musculus [26] = assay: Tested for biodistribution of radioactivity after 5 min of intravenous injection in mice spleen; assay type: ADME, organism-based; conditions: in vivo
Mus musculus [27] = assay: Tested for biodistribution of radioactivity after 24 hr of intravenous injection in mice kidneys; assay type: ADME, organism-based, Kidney; conditions: in vivo
Mus musculus [28] = assay: Tested for biodistribution of radioactivity after 1 hr of intravenous injection in mice intestines; assay type: ADME, organism-based, Intestine; conditions: in vivo
Mus musculus [29] = assay: Tested for biodistribution of radioactivity after 24 hr of intravenous injection in mice blood; assay type: ADME, organism-based; conditions: in vivo
Mus musculus [30] = assay: Tested for biodistribution of radioactivity after 30 min of intravenous injection in mice lintestines; assay type: ADME, organism-based, Intestine; conditions: in vivo, 0.5 h
Mus musculus [31] = assay: Tested for biodistribution of radioactivity after 24 hr of intravenous injection in mice feces; assay type: ADME, organism-based; conditions: in vivo
Mus musculus [32] = assay: Tested for biodistribution of radioactivity after 5 min of intravenous injection in mice intestines; assay type: ADME, organism-based, Intestine; conditions: in vivo
Mus musculus [33] = assay: Tested for biodistribution of radioactivity after 3h of intravenous injection in mice intestines; assay type: ADME, organism-based, Intestine; conditions: in vivo
Mus musculus [34] = assay: Tested for biodistribution of radioactivity after 6 hr of intravenous injection in mice blood; assay type: ADME, organism-based; conditions: in vivo
Mus musculus [35] = assay: Tested for biodistribution of radioactivity after 30 min of intravenous injection in mice stomach; assay type: ADME, organism-based; conditions: in vivo, 0.5 h
Mus musculus [36] = assay: Tested for biodistribution of radioactivity after 3h of intravenous injection in mice stomach; assay type: ADME, organism-based; conditions: in vivo
Mus musculus [37] = assay: Tested for biodistribution of radioactivity after 3h of intravenous injection in mice neck; assay type: ADME, organism-based; conditions: in vivo
Mus musculus [38] = assay: Tested for biodistribution of radioactivity after 6 hr of intravenous injection in mice spleen; assay type: ADME, organism-based; conditions: in vivo
Mus musculus [39] = assay: Tested for biodistribution of radioactivity after 6 hr of intravenous injection in mice urine; assay type: ADME, organism-based; conditions: in vivo
Mus musculus [40] = assay: Tested for biodistribution of radioactivity after 5 min of intravenous injection in mice neck; assay type: ADME, organism-based; conditions: in vivo
Mus musculus [41] = assay: Tested for biodistribution of radioactivity after 3h of intravenous injection in mice liver; assay type: ADME, organism-based; conditions: in vivo
Mus musculus [42] = assay: Tested for biodistribution of radioactivity after 5 min of intravenous injection in mice stomach; assay type: ADME, organism-based; conditions: in vivo
Mus musculus [43] = assay: Tested for biodistribution of radioactivity after 6 hr of intravenous injection in mice liver; assay type: ADME, organism-based; conditions: in vivo
Mus musculus [44] = assay: Tested for biodistribution of radioactivity after 5 min of intravenous injection in mice liver; assay type: ADME, organism-based; conditions: in vivo
Mus musculus [45] = assay: Tested for biodistribution of radioactivity after 1 hr of intravenous injection in mice liver; assay type: ADME, organism-based; conditions: in vivo
Mus musculus [46] = assay: Tested for biodistribution of radioactivity after 1 hr of intravenous injection in mice neck; assay type: ADME, organism-based; conditions: in vivo

A Dose/organ (Mus musculus [1]) of 90.6%, a Dose/organ (Mus musculus [2]) of 0.11% and a Dose/organ (Mus musculus [3]) of 0.65% were found for CN[C@@H](CSC1CC(=O)N(CCOC(=O)CNC(=O)c2cccc(I)c2)C1=O)C(=O)O (some centres not stated) in this work. The Dose/organ (Mus musculus [4]) was 0.01%, the Dose/organ (Mus musculus [5]) was 0.05% and the Dose/organ (Mus musculus [6]) was 0.84%. For the same compound, the Dose/organ (Mus musculus [7]) was 0.14%, the Dose/organ (Mus musculus [8]) was 0.12% and the Dose/organ (Mus musculus [9]) was 0.45%. For the same compound, the Dose/organ (Mus musculus [10]) was 2.3%, the Dose/organ (Mus musculus [11]) was 2.79% and the Dose/g (Mus musculus [12]) was 0.24%. It also gave a Dose/organ (Mus musculus [13]) of 0.05%, a Dose/organ (Mus musculus [14]) of 0.56% and a Dose/organ (Mus musculus [15]) of 0.04%. For the same compound, the Dose/organ (Mus musculus [16]) was 12.28%, the Dose/organ (Mus musculus [17]) was 5.34% and the Dose/organ (Mus musculus [18]) was 0.1%. For the same compound, the Dose/organ (Mus musculus [19]) was 0.02%, the Dose/g (Mus musculus [20]) was 0.45% and the Dose/organ (Mus musculus [21]) was 0.27%. The Dose/organ (Mus musculus [22]) was 0.06%, the Dose/organ (Mus musculus [23]) was 0.07% and the Dose/g (Mus musculus [24]) was 1.01%. It also gave a Dose/g (Mus musculus [25]) of 0.09%, a Dose/organ (Mus musculus [26]) of 0.21% and a Dose/organ (Mus musculus [27]) of 0.02%. The Dose/organ (Mus musculus [28]) was 6.11%, the Dose/g (Mus musculus [29]) was 0.02% and the Dose/organ (Mus musculus [30]) was 9.99%. It also gave a Dose/organ (Mus musculus [31]) of 3.52%, a Dose/organ (Mus musculus [32]) of 0.28% and a Dose/organ (Mus musculus [33]) of 2.54%. For the same compound, the Dose/g (Mus musculus [34]) was 0.03%, the Dose/organ (Mus musculus [35]) was 0.59% and the Dose/organ (Mus musculus [36]) was 0.52%. For the same compound, the Dose/organ (Mus musculus [37]) was 0.02%, the Dose/organ (Mus musculus [38]) was 0.07% and the Dose/organ (Mus musculus [39]) was 78.35%. It also gave a Dose/organ (Mus musculus [40]) of 0.07%, a Dose/organ (Mus musculus [41]) of 1.56% and a Dose/organ (Mus musculus [42]) of 0.18%. The Dose/organ (Mus musculus [43]) was 0.58%, the Dose/organ (Mus musculus [44]) was 92.56% and the Dose/organ (Mus musculus [45]) was 3.98%. The Dose/organ (Mus musculus [46]) was 0.06%.
A Dose/organ (Mus musculus [1]) of 83.9%, a Dose/organ (Mus musculus [2]) of 0.14% and a Dose/organ (Mus musculus [3]) of 0.8% were found for CN[C@@H](CCCCN)C(=O)NC(=O)c1cccc(I)c1 in this work. For the same compound, the Dose/organ (Mus musculus [4]) was 0.01%, the Dose/organ (Mus musculus [5]) was 0.04% and the Dose/organ (Mus musculus [6]) was 1.83%. For the same compound, the Dose/organ (Mus musculus [7]) was 0.7%, the Dose/organ (Mus musculus [8]) was 0.07% and the Dose/organ (Mus musculus [9]) was 0.32%. The Dose/organ (Mus musculus [10]) was 1.53%, the Dose/organ (Mus musculus [11]) was 1.71% and the Dose/g (Mus musculus [12]) was 0.28%. For the same compound, the Dose/organ (Mus musculus [13]) was 0.07%, the Dose/organ (Mus musculus [14]) was 0.43% and the Dose/organ (Mus musculus [15]) was 0.02%. It also gave a Dose/organ (Mus musculus [16]) of 21.18%, a Dose/organ (Mus musculus [17]) of 6.42% and a Dose/organ (Mus musculus [18]) of 0.09%. It also gave a Dose/organ (Mus musculus [19]) of 0.01%, a Dose/g (Mus musculus [20]) of 0.95% and a Dose/organ (Mus musculus [21]) of 0.18%. It also gave a Dose/organ (Mus musculus [22]) of 0.31%, a Dose/organ (Mus musculus [23]) of 0.01% and a Dose/g (Mus musculus [24]) of 1.16%. The Dose/g (Mus musculus [25]) was 0.11%, the Dose/organ (Mus musculus [26]) was 0.02% and the Dose/organ (Mus musculus [27]) was 0.02%. For the same compound, the Dose/organ (Mus musculus [28]) was 10.73%, the Dose/organ (Mus musculus [29]) was 0.01% and the Dose/organ (Mus musculus [30]) was 9.45%. For the same compound, the Dose/organ (Mus musculus [31]) was 3.26%, the Dose/organ (Mus musculus [32]) was 0.41% and the Dose/organ (Mus musculus [33]) was 6.42%. The Dose/g (Mus musculus [34]) was 0.04%, the Dose/organ (Mus musculus [35]) was 0.65% and the Dose/organ (Mus musculus [36]) was 0.36%. For the same compound, the Dose/organ (Mus musculus [37]) was 0.02%, the Dose/organ (Mus musculus [38]) was 0.02% and the Dose/organ (Mus musculus [39]) was 63.2%. The Dose/organ (Mus musculus [40]) was 0.16%, the Dose/organ (Mus musculus [41]) was 4.18% and the Dose/organ (Mus musculus [42]) was 0.16%. It also gave a Dose/organ (Mus musculus [43]) of 2.82%, a Dose/organ (Mus musculus [44]) of 92.86% and a Dose/organ (Mus musculus [45]) of 6.96%. The Dose/organ (Mus musculus [46]) was 0.03%.
